Measurements reported in patent US6242494A, “Substituted β-amino acid inhibitors of methionine aminopeptidase-2” (Abbott Laboratories, priority 1999, dated 2001).
Counter-ions that a name gives are not always drawn.

target: T1, methionine aminopeptidase-2 (MetAP2) (Homo sapiens, UniProt P50579); assay: Inhibition of MetAP2 enzyme activity (96-well, Met-Ala-Ser substrate, L-amino acid oxidase/peroxidase/ortho-dianisidine, 450 nm); format: biochemical; settings: IC50, recombinant MetAP2 4 μg/mL, pH 7.4, Met-Ala-Ser substrate, 20 minutes
T1 construct: made in house; host or cells: insect cells, baculovirus system (secreted, purified from culture supernatant)
T1 sequence (P50579 whole entry): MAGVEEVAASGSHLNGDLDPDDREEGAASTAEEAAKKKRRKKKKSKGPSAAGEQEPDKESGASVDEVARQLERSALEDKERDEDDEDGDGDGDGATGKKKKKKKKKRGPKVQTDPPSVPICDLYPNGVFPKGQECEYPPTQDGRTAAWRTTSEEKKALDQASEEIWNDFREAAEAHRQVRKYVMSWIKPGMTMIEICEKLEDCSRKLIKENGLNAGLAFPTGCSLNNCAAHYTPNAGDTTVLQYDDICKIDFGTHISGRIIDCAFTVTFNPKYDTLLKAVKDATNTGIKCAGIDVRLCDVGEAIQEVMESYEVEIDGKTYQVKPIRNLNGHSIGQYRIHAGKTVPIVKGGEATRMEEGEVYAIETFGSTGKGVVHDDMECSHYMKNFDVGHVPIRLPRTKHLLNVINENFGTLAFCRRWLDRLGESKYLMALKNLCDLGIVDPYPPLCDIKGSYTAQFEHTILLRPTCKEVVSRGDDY
Description: The ability of compounds of the present invention to inhibit methionine aminopeptidase 2 was evaluated using the following assay.
Assays for MetAP2 enzyme activity and MetAP2 inhibition were performed in 96-well microtiter plates. Compounds to be tested for MetAP2 inhibition were dissolved in dimethyl-sulfoxide at 10 mM and diluted ten-fold in assay buffer ([…], pH 7.4, 100 mM NaCl). Ten microliters of solution of each compound to be tested for inhibition were introduced into each cell of the plate, with each compound being tested in triplicate.
The absorbence at 450 nanometers was measured every 20 seconds over a period of twenty minutes using an automaic plate reader (Molecular Devices, CA, USA). The Vmax in mOD/min, calculated for each well was used to represent MetAP2 activity. The IC50 for each inhibitor was obtained by plotting the remaining MetAP2 activity versus inhibitor concentration.

SMILES | IC50 [nM]
N[C@H](CC1CCCCC1)C(O)C(=O)Nc1cccc(C(F)(F)F)c1 (mixture of isomers) [Example 151, (2RS,3R)-3-amino-4-cyclohexyl-2-hydroxy-N-(3-(trifluoromethyl)phenyl)butanamide] | 430
N[C@H](CC1CCCCC1)C(O)C(=O)Nc1ccc(C(F)(F)F)cc1 (mixture of isomers) [Example 152, (2RS,3R)-3-amino-4-cyclohexyl-2-hydroxy-N-(4-(trifluoromethyl)phenyl)butanamide] | 2400
N[C@H](CC1CCCCC1)C(O)C(=O)Nc1ccc(Cl)c(Cl)c1 (mixture of isomers) [Example 153, (2RS,3R)-3-amino-4-cyclohexyl-N-(3,4-dichlorophenyl)-2-hydroxybutanamide] | 370
N[C@H](CC1CCCCC1)C(O)C(=O)Nc1ccc(Cl)cc1Cl (mixture of isomers) [Example 154, (2RS,3R)-3-amino-4-cyclohexyl-N-(2,4-dichlorophenyl)-2-hydroxybutanamide] | 1900
N[C@H](CC1CCCCC1)C(O)C(=O)NCc1ccc(C(F)(F)F)cc1 (mixture of isomers) [Example 158, (2RS,3R)-3-amino-4-cyclohexyl-2-hydroxy-N-(4-(trifluoromethyl)benzyl)butanamide] | 2800
N[C@H](CC1CCCCC1)C(O)C(=O)NCc1ccccc1Cl (mixture of isomers) [Example 159, (2RS,3R)-3-amino-N-(2-chlorobenzyl)-4-cyclohexyl-2-hydroxybutanamide] | 1500
COc1ccc([N+](=O)[O-])cc1NC(=O)C(O)[C@H](N)CC1CCCCC1 (mixture of isomers) [Example 160, (2RS,3R)-3-amino-4-cyclohexyl-2-hydroxy-N-(2-methoxy-5-nitrophenyl)butanamide hydrochloride] | 900
COc1cc(NC(=O)C(O)[C@H](N)CC2CCCCC2)cc(OC)c1 (mixture of isomers) [Example 161, (2RS,3R)-3-amino-4-cyclohexyl-N-(3,5-dimethoxyphenyl)-2-hydroxybutanamide hydrochloride] | 620
N[C@H](CC1CCCCC1)C(O)C(=O)Nc1cccc(Oc2ccccc2)c1 (mixture of isomers) [Example 162, (2RS,3R)-3-amino-4-cyclohexyl-2-hydroxy-N-(3-phenoxyphenyl)butanamide hydrochloride] | 1200
N[C@H](CC1CCCCC1)C(O)C(=O)NCCc1cccc(F)c1 (mixture of isomers) [Example 166, (2RS,3R)-3-amino-4-cyclohexyl-N-(3-fluorophenethyl)-2-hydroxybutanamide hydrochloride] | 590
N[C@H](CC1CCCCC1)C(O)C(=O)NCCc1ccc(OCc2ccccc2)c(OCc2ccccc2)c1 (mixture of isomers) [Example 167, (2RS,3R)-3-amino-N-(3,4-bis(benzyloxy)phenethyl)-4-cyclohexyl-2-hydroxybutanamide hydrochloride] | 3300
N[C@H](CC1CCCCC1)C(O)C(=O)NCCc1ccc(Oc2ccccc2)cc1 (mixture of isomers) [Example 168, (2RS,3R)-3-amino-4-cyclohexyl-2-hydroxy-N-(4-phenoxyphenethyl)butanamide hydrochloride] | 1500
N[C@H](CC1CCCCC1)C(O)C(=O)Nc1cccc(OC(F)(F)F)c1 (mixture of isomers) [Example 170, (2RS,3R)-3-amino-4-cyclohexyl-2-hydroxy-N-(3-(trifluoromethoxy)phenyl)butanamide hydrochloride] | 1000
Cc1ccccc1NC(=O)C(O)[C@H](N)CC1CCCCC1 (mixture of isomers) [Example 171, (2RS,3R)-3-amino-4-cyclohexyl-2-hydroxy-N-(2-methylphenyl)butanamide hydrochloride] | 950
Cc1cccc(C)c1NC(=O)C(O)[C@H](N)CC1CCCCC1 (mixture of isomers) [Example 172, (2RS,3R)-3-amino-4-cyclohexyl-N-(2,6-dimethylphenyl)-2-hydroxybutanamide hydrochloride] | 5000
Cc1cc(I)ccc1NC(=O)C(O)[C@H](N)CC1CCCCC1 (mixture of isomers) [Example 173, (2RS,3R)-3-amino-4-cyclohexyl-2hydroxy-N-(4-iodo-2-methylphenyl)butanamide hydrochloride] | 580
COc1cc(Nc2ccccc2)ccc1NC(=O)C(O)[C@H](N)CC1CCCCC1 (mixture of isomers) [Example 174, (2RS,3R)-3-amino-N-(4-anilino-2-methoxyphenyl)-4-cyclohexyl-2-hydroxybutanamide hydrochloride] | 1500
CCOc1ccccc1NC(=O)C(O)[C@H](N)CC1CCCCC1 (mixture of isomers) [Example 175, (2RS,3R)-3-amino-4-cyclohexyl-N-(2-ethoxyphenyl)-2-hydroxybutanamide hydrochloride] | 2100
COc1cc(Cl)c(C)cc1NC(=O)C(O)[C@H](N)CC1CCCCC1 (mixture of isomers) [Example 176, (2RS,3R)-3-amino-N-(4-chloro-2-methoxy-5-methylphenyl)-4-cyclohexyl-2-hydroxybutanamide hydrochloride] | 3400
COc1ccc(OC)c(NC(=O)C(O)[C@H](N)CC2CCCCC2)c1 (mixture of isomers) [Example 177, (2RS,3R)-3-amino-4cyclohexyl-N-(2,5-dimethoxyphenyl)-2-hydroxybutanamide hydrochloride] | 2000
COc1ccc(NC(C)=O)cc1NC(=O)C(O)[C@H](N)CC1CCCCC1 (mixture of isomers) [Example 178, (2RS,3R)-N-(5-(acetylamino)-2-methoxyphenyl)-3-amino-4-cyclohexyl-2-hydroxybutanamide hydrochloride] | 11000
COc1cc2c(cc1NC(=O)C(O)[C@H](N)CC1CCCCC1)oc1ccccc12 (mixture of isomers) [Example 179, (2RS,3R)-3-amino-4-cyclohexyl-2-hydroxy-N-(2-methoxydibenzo(b,d)furan-3-yl)butanamide hydrochloride] | 4900
COc1cc(OC)c(NC(=O)C(O)[C@H](N)CC2CCCCC2)cc1Cl (mixture of isomers) [Example 180, (2RS,3R)-3-amino-N-(5-chloro-2,4-dimethoxyphenyl)-4-cyclohexyl-2-hydroxybutanamide hydrochloride] | 2000
CCOc1ccc(OCC)c(NC(=O)C(O)[C@H](N)CC2CCCCC2)c1 (mixture of isomers) [Example 181, (2RS,3R)-3-amino-4-cyclohexyl-N-(2,5-diethoxyphenyl)-2-hydroxybutanamide hydrochloride] | 9800
COc1ccc(C(C)(C)C)cc1NC(=O)C(O)[C@H](N)CC1CCCCC1 (mixture of isomers) [Example 182, (2RS,3R)-3-amino-N-(5-(tert-butyl)-2-methoxyphenyl)-4-cyclohexyl-2-hydroxybutanamide hydrochloride] | 8000
N[C@H](CC1CCCCC1)C(O)C(=O)Nc1ccccc1Oc1ccccc1 (mixture of isomers) [Example 183, (2RS,3R)-3-amino-4-cyclohexyl-2-hydroxy-N-(2-phenoxyphenyl)butanamide hydrochloride] | 8700
